The EC50 is the concentration at which the effect is half-maximal. As usually defined, the IC50 is the concentration needed to halve the response being measured.

For one data set, the system named is P. falciparum 3D7. The conditions noted are these: read-out: Pf(3D7) EC50, cited from earlier work.
The target of data set [1] is T1, Plasmodium falciparum thioredoxin reductase (PfTrxR) (Plasmodium falciparum, UniProt P61076).
T1 sequence (P61076 1-541 isoform P61076-2): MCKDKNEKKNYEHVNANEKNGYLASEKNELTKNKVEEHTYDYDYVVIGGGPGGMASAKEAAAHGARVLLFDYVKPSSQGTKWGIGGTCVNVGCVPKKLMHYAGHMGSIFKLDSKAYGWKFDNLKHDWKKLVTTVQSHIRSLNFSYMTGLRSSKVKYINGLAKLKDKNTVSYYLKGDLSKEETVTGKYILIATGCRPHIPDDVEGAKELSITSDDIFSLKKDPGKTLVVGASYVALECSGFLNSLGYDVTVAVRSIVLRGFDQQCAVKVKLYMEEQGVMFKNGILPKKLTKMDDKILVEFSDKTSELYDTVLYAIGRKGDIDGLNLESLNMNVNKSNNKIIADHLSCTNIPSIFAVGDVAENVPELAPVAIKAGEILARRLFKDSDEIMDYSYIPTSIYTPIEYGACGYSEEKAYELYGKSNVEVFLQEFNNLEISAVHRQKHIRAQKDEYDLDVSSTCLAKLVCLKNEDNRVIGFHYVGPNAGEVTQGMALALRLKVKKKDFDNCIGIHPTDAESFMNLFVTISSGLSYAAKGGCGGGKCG
Kind of data set: biochemical. In kind it is biochemical. The conditions noted are these: for IC50: cytosolic PfTrxR (PfTrxR 1 isoform), titrated 50 to 0.07 µM; for Hill slope of dose response curve against PfTrxR: Figure 2.

In data set [2] the test system is MRC-5 cells (human fetal lung cells). The conditions noted are these: cited from earlier work.
[3] abbreviates: chloroquine sensitive, sulfadoxine resistant strain, MMV database ref 10.
[4] abbreviates: read-out: MRC-5 Cells IC50, human fetal lung cells, cytotoxicity, MMV database ref 10.

Molecules are shown by their SMILES. Where two headings read alike, the source gives them in different places.

As to `C[C@@H]1CC[C@H]2[C@@H](C)C(=O)O[C@@H]3O[C@@]4(C)CC[C@@H]1[C@]32OO4` [Artemisinin, reference compound], the EC50 in the data set with P. falciparum 3D7 (setting [3]) is 20.7 nM.
As for `O=C1C(O)=C([C@H]2CC[C@H](c3ccc(Cl)cc3)CC2)C(=O)c2ccccc21` [Atovaquone, reference compound], the IC50 in data set [1] was greater than 10000 nM. Further, the EC50 with P. falciparum 3D7 is 0.24 nM.
For the molecule `CCN(CC)CCCC(C)Nc1ccnc2cc(Cl)ccc12` (centres unmarked) [Chloroquine, reference compound], the EC50 in the data set on P. falciparum 3D7 (setting [3]) was 27.3 nM.
For the molecule `N.N.[Cl][Pt][Cl]` [Cisplatin, reference compound], the IC50 in data set [2] is 19600 nM.
Turning to `CCc1c(C)c(=N)c2ccccc2n1C` [Compound 1, 2-ethyl-1,3-dimethylquinolin-4-imine;hydroiodide], in data set [1], the “Hill slope of dose response curve against PfTrxR” value (shortened to “Hill slope of dose response curve”) turned out to be 1.1420 and half-maximal inhibition (IC50) was put at 3500 nM. Moreover, in the data set with P. falciparum 3D7 (setting [3]), the EC50 was 378 nM.
Consider `COc1ccccc1NC1=C(N2CCCCC2)C(=O)c2ccccc2C1=O` [Compound 2, 2-(2-methoxyanilino)-3-piperidin-1-ylnaphthalene-1,4-dione], for which, in data set [1], the “Hill slope of dose response curve” value came out at 0.6031 and the IC50 was 900 nM. For the same molecule, the EC50 in the data set on P. falciparum 3D7 (setting [3]) was 5.3 nM. Moreover, the IC50 in data set [2] (setting [4]) was 68700 nM.
Consider `CCOc1cc2c(cc1OCC)C(c1cc(OC)c(O)cc1Cl)NCC2` (centres unmarked) [Compound 3, 5-chloro-4-(6,7-diethoxy-1,2,3,4-tetrahydroisoquinolin-1-yl)-2-methoxyphenol], for which, in data set [1], the “Hill slope of dose response curve” value stood at 0.8022 and half-maximal inhibition (IC50) was put at 6600 nM. For the same molecule, the EC50 with P. falciparum 3D7 (setting [3]) was 370 nM. In addition, the 50% inhibitory concentration (IC50) in data set [2] (setting [4]) is 85400 nM.
Regarding `COc1ccc(-c2c(C)nn3c(N)c(C#N)cnc23)cc1OC` [Compound 4, 7-amino-3-(3,4-dimethoxyphenyl)-2-methylpyrazolo[1,5-a]pyrimidine-6-carbonitrile], the “Hill slope of dose response curve” value in data set [1] is 2.0020. Moreover, the EC50 with P. falciparum 3D7 (setting [3]) is 477 nM. Also, in data set [2] (setting [4]), the IC50 is greater than 100000 nM.
As to `CCCc1c(CC)c(=N)c2ccccc2n1C` [Compound 5, 3-ethyl-1-methyl-2-propylquinolin-4-imine;hydron;iodide], in data set [1], the “Hill slope of dose response curve” value turned out to be 1.1510 and the IC50 is 7500 nM. For the same molecule, the concentration giving a half-maximal response (EC50) in the data set with P. falciparum 3D7 (setting [3]) is 242 nM. For the same molecule, in data set [2] (setting [4]), the IC50 was 71200 nM.

Source of the values: paper PMC6273446, “Preliminary LC-MS Based Screening for Inhibitors of Plasmodium falciparum Thioredoxin Reductase (PfTrxR) among a Set of Antimalarials from the Malaria Box” (Molecules, 2016).
